Results from patent US9592223B2, “Small molecule inhibitors of MALT1” (Cornell University, priority 2012, dated 2017).

Tested on: MALT1^WT NF-κB activation
Test: NF-κB reporter assay in 293T cells, PMA/ionomycin, BCL10 and MALT1 WT
Format: cell-based
Details: pre-treatment
Source text: Antigen receptor-mediated NF-κB signaling partly depends on MALT1 activity (Ruefli-Brasse et al., 2003; Ruland et al., 2003). […] First, 293T cells were transfected with the NF-κB reporter vector (NF-κB)5-luc2CP-pGL4 (harboring 5 copies of the NF-κB consensus response element and a destabilized Firefly luciferase) and TK-pRL control together with plasmids expressing BCL10 and either MALT1^WT or MALT1^C464A. […] HBL-1 was transfected with the reporter construct (NF-κB)5-luc2CP-pGL4 and TK-pRL control.
Reporter assays were performed in 293T cells seeded at a density of 2×10^5 cells per well of a 12-well dish. 100 ng of (NF-κB)5-Luc2CP-pGL4 and 10 ng of TK-Renilla internal control plasmid were cotransfected along with 25 ng of the indicated plasmids (MIGR1-MALT1^WT or MIGR1-MALT1^C464A and pcDNA4-Flag-Bcl10) using Lipofectamine 2000 (Invitrogen). Lysates were submitted to dual luciferase assays following manufacturer's protocol (Promega). In HBL-1, 5 μg of (NF-κB)5-Luc2CP-pGL4 and 50 ng of TK-Renilla internal control plasmid per 5×10^6 cells were cotransfected using nucleofection (Amaxa, Lonza, Basel, Switzerland). Forty-eight hours after transfection, cells were plated at a density of 5×10^4 cells per well of a 24-well plate and treated as indicated. Lysates were submitted to dual luciferase assays following manufacturer's protocol (Promega).

## COCCOc1nc(-c2ccc(Cl)c(Cl)c2)n(-c2ccc(NC(=O)CCl)cc2)n1 [MI-2]
  NF-κB induction by PMA/ionomycin stimulation: significantly inhibited NF-κB induction
